Measurements: patent US8618162B2 (priority 2007, dated 2013)
Read-outs that look alike come from different tables or passages of the source.

Columns and labels:
hAChE = molecular target: T1, hAChE (Homo sapiens, UniProt P22303); assay: Ellman AChE inhibition assay, recombinant hAChE; assay type: biochemical
T1 construct: purchased Sigma C1682

Ag hmg AChE = molecular target: T2, Ag hmg AChE (Anopheles gambiae, UniProt Q869C3); assay: Ellman AChE inhibition assay, Anopheles gambiae homogenate (Ag hmg); assay type: biochemical; settings: for IC50: pH 7.8, 10 min preincubation; for IC50 ratio (hAChE/Ag hmg): selectivity, values in parenthesis
T2 construct: To prepare the Ag homogenate (Ag hmg) 10 Anopheles gambiae mosquitoes were combined; from tissue; host or cells: whole Anopheles gambiae mosquitoes, crude homogenate supernatant

Ag ace-1S [1] = molecular target: T3, Ag ace-1S (Anopheles gambiae, UniProt Q869C3); assay: biochemical
T3 construct: encoding the entire wild type AgAChE protein (ace1, 737 amino acids); made in house; host or cells: Drosophila S2 cells (stably transfected, pMT/V5-His vector), clarified cell lysate

Ag ace-1S [2] = assay: biochemical; parameters: species or system Anopheles gambiae; settings: selectivity, values in parenthesis
Anopheles gambiae = assay: Live mosquito contact toxicity, WHO filter paper assay; assay type: in vivo; settings: for Live Mosquito Contact Toxicity MC for 100% lethality at 24 hr: 1 hr exposure to treated filter paper
Md hmg AChE = molecular target: T4, Md hmg AChE (Musca domestica, UniProt Q7YWJ9)
T4 construct: Comparison of Ag homogenate and Md head; host or cells: housefly head homogenate

bovine AChE = molecular target: T5, bovine AChE (Bos taurus, UniProt P23795); settings: read-out: potency at bovine AChE; Kohn 1965; cited from earlier work
T5 sequence (P23795 31-613): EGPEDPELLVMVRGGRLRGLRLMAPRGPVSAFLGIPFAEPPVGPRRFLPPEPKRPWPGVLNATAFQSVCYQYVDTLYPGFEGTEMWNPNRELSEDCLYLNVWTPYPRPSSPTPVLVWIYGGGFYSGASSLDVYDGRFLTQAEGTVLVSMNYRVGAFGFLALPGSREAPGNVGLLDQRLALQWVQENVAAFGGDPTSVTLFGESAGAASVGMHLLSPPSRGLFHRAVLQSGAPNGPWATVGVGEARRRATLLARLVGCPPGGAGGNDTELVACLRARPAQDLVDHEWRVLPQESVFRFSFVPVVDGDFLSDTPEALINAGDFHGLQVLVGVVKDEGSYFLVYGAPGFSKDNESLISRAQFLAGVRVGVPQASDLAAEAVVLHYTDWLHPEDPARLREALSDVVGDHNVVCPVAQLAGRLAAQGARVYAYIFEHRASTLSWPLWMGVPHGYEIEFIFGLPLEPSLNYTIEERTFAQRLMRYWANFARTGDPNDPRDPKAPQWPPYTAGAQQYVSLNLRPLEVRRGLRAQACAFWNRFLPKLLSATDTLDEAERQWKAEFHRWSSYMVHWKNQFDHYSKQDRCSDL

[3] = Ag WT hmg IC50, WT Anopheles gambiae homogenate
[4] = read-out: Md WT hmg IC50; Musca domestica head homogenate; data from Metcalf / Kolbezen; cited from earlier work
[5] = WT Anopheles gambiae homogenate, read-out: Ag WT hmg IC50
[6] = Musca domestica head homogenate; data from Metcalf / Kolbezen; read-out: Md WT hmg IC50; cited from earlier work

T1 sequence (P22303 32-614): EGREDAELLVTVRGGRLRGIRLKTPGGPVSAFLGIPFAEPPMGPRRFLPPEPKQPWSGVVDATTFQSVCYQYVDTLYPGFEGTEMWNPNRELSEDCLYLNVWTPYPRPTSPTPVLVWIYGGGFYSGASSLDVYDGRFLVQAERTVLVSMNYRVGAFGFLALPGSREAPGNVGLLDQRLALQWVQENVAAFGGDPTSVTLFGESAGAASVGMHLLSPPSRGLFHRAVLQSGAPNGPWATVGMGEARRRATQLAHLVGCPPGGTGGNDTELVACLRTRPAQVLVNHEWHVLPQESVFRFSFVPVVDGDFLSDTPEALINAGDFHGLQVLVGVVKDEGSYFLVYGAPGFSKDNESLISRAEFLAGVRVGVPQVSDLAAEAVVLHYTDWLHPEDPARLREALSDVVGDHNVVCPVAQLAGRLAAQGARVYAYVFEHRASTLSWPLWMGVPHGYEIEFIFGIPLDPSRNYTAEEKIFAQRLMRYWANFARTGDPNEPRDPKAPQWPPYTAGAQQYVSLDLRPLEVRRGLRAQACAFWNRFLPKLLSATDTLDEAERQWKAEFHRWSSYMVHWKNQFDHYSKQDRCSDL
T4 sequence (Q7YWJ9 1-692): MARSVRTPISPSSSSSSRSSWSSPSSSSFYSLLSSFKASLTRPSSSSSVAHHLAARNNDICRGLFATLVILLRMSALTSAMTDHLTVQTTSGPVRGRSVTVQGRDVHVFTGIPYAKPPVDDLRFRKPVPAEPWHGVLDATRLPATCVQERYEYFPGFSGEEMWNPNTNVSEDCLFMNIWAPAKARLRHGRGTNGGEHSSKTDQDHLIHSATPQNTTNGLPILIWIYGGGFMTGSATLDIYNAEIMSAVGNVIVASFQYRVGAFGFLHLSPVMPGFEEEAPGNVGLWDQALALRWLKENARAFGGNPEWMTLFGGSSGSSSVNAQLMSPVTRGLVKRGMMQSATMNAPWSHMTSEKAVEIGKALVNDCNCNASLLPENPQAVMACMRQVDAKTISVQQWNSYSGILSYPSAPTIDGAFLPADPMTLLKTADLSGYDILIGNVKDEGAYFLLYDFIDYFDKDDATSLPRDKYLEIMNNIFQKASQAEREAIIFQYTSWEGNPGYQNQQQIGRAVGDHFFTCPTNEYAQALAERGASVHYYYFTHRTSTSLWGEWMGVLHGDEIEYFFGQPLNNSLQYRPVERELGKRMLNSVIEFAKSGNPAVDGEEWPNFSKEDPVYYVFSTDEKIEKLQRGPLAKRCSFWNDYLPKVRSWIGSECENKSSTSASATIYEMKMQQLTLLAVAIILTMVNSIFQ
T2 sequence (Q869C3 39-737): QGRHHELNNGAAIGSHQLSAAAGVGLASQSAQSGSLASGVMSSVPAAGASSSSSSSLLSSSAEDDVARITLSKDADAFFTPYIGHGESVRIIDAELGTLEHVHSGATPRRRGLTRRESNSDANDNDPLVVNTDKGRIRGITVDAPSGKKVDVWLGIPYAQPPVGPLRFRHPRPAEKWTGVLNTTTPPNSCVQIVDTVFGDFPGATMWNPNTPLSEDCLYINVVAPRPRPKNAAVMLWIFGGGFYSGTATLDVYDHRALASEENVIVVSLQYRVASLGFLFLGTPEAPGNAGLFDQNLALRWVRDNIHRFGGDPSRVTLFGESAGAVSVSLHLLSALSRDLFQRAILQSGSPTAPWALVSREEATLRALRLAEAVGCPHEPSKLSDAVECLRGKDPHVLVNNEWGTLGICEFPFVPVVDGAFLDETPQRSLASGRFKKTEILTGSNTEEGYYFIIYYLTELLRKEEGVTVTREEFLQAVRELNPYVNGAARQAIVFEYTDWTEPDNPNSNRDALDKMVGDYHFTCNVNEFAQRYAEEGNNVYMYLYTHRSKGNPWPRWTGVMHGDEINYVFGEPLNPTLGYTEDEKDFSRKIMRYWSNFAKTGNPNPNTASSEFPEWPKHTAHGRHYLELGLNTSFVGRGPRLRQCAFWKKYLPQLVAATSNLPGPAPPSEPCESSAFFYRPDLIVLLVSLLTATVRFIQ
T3 sequence (Q869C3 39-737): as above

In the case of `CNC(=O)Oc1ccccc1OC(C)C` [Propoxur, reference compound], the IC50 (hAChE) is reported as 0.444 µM, the IC50 (Ag hmg AChE; [3]) is reported as 0.371 µM and the “IC50 ratio (hAChE/Ag hmg)” value (Ag hmg AChE) is reported as “(1.2x)”. For the same compound, the IC50 (Ag ace-1S [1]) was 0.213 µM, the “IC50 ratio (hAChE/Ag ace-1S)” value (Ag ace-1S [2]) was “(2.1x)” and the “Live Mosquito Contact Toxicity MC for 100% lethality at 24 hr” value (Anopheles gambiae) was 1.1 ug/cm^2. For the same compound, the IC50 (Md hmg AChE; [4]) was 0.67 µM.
In the case of `CNC(=O)O/N=C/C(C)(C)SC` [Aldicarb, reference compound], the IC50 (Ag hmg AChE; [5]) is reported as 4.62 µM, the IC50 (Ag ace-1S [1]) is reported as 10.9 µM and the “Live Mosquito Contact Toxicity MC for 100% lethality at 24 hr” value (Anopheles gambiae) is reported as 0.55 ug/cm^2. For the same compound, the IC50 (Md hmg AChE; [6]) was 84 µM.
In the case of `CNC(=O)Oc1cccc(C(C)C)c1` [Compound 4a], the IC50 (Ag hmg AChE; [3]) is listed as 0.027 µM, the IC50 (Ag ace-1S [1]) is listed as 0.012 µM and the IC50 (Md hmg AChE; [4]) is listed as 0.34 µM.
In the case of `CNC(=O)Oc1cc(C(C)(C)C)cc(C(C)(C)C)c1` [Compound 11a], the IC50 (hAChE) is reported as 5.17 µM, the IC50 (Ag hmg AChE; [3]) is reported as 5.32 µM and the “IC50 ratio (hAChE/Ag hmg)” value (Ag hmg AChE) is reported as “(1.0x)”. For the same compound, the IC50 (Ag ace-1S [1]) was 2.47 µM, the “IC50 ratio (hAChE/Ag ace-1S)” value (Ag ace-1S [2]) was “(2.1x)” and the “lethality at 24 h” value (Anopheles gambiae; at 11 ug/cm^2, 1 hr exposure) was “None at 11”. The IC50 (Md hmg AChE; [4]) was 0.078 µM.
For `CNC(=O)Oc1cccc(Cl)c1` [Compound 7a], the IC50 (hAChE) was 86 µM, the IC50 (Ag hmg AChE; [3]) was 26 µM and the “IC50 ratio (hAChE/Ag hmg)” value (Ag hmg AChE) was “(3.3x)”. For the same compound, the IC50 (Ag ace-1S [1]) was 16.6 µM, the “IC50 ratio (hAChE/Ag ace-1S)” value (Ag ace-1S [2]) was “(5.2x)” and the “Live Mosquito Contact Toxicity MC for 100% lethality at 24 hr” value (Anopheles gambiae) was 56 ug/cm^2. For the same compound, the IC50 (Md hmg AChE; [4]) was 50 µM.
For `CNC(=O)Oc1cccc2ccccc12` [Carbaryl, reference compound], the IC50 (hAChE; pH 7.8, 10 min preincubation, read-out: hAChE recomb. IC50) was 2.84 µM, the IC50 (Ag hmg AChE; [5]) was 0.262 µM and the IC50 (Ag ace-1S [1]) was 0.515 µM. For the same compound, the IC50 (Md hmg AChE; [6]) was 0.9 µM.
In the case of `CNC(=O)Oc1cccc(C(C)(C)C)c1` [Compound 1a, 3-tert-butylphenyl-N-methyl carbamate], the IC50 (hAChE) is reported as 0.265 µM, the “Live Mosquito Contact Toxicity MC for 100% lethality at 24 hr” value (Anopheles gambiae) is reported as 1.1 ug/cm^2 and the “Live Mosquito Contact Toxicity MC for 100% lethality at 24 hr, with synergist” value (Anopheles gambiae; 1 hr exposure, piperonyl butoxide 0.3 mg/mL) is reported as 0.28 ug/cm^2. For the same compound, the IC50 (Md hmg AChE; [4]) was 0.4 µM and the IC50 (bovine AChE) was 0.53 µM.
For `CCc1cccc(OC(=O)NC)c1` [Compound 5a], the IC50 (hAChE) was 2.5 µM, the IC50 (Ag hmg AChE; [3]) was 0.63 µM and the “IC50 ratio (hAChE/Ag hmg)” value (Ag hmg AChE) was “(4.0) x”. The IC50 (Ag ace-1S [1]) was 0.392 µM, the “IC50 ratio (hAChE/Ag ace-1S)” value (Ag ace-1S [2]) was “(6.4x)” and the “Live Mosquito Contact Toxicity MC for 100% lethality at 24 hr” value (Anopheles gambiae) was 11 ug/cm^2. For the same compound, the IC50 (Md hmg AChE; [4]) was 13 µM.
In the case of `CNC(=O)Oc1cccc(I)c1` [Compound 9a], the IC50 (hAChE) is reported as 67.2 µM, the IC50 (Ag hmg AChE; [3]) is reported as 5.17 µM and the “IC50 ratio (hAChE/Ag hmg)” value (Ag hmg AChE) is reported as “(13x)”. For the same compound, the IC50 (Ag ace-1S [1]) was 1.82 µM, the “IC50 ratio (hAChE/Ag ace-1S)” value (Ag ace-1S [2]) was “(37x)” and the “Live Mosquito Contact Toxicity MC for 100% lethality at 24 hr” value (Anopheles gambiae) was 11 ug/cm^2. For the same compound, the IC50 (Md hmg AChE; [4]) was 7 µM.
With `CNC(=O)Oc1cccc(Br)c1` [Compound 8a] the IC50 (hAChE) was over 100 µM, the IC50 (Ag hmg AChE; [3]) was 24 µM and the “IC50 ratio (hAChE/Ag hmg)” value (Ag hmg AChE) was “(>4.2x)”. For the same compound, the IC50 (Ag ace-1S [1]) was 7.61 µM, the “IC50 ratio (hAChE/Ag ace-1S)” value (Ag ace-1S [2]) was “(>13x)” and the “Live Mosquito Contact Toxicity MC for 100% lethality at 24 hr” value (Anopheles gambiae) was 11 ug/cm^2. The IC50 (Md hmg AChE; [4]) was 13 µM.
For `CC[Si](C)(C)c1cccc(OC(=O)NC)c1` [Compound 3a, N-methyl 3-ethyldimethylsilylphenyl carbamate], the IC50 (hAChE) was 0.285 µM, the IC50 (Ag hmg AChE; [3]) was 0.0027 µM and the “IC50 ratio (hAChE/Ag hmg)” value (Ag hmg AChE) was “(110x)”. The IC50 (Ag ace-1S [1]) was 0.0022 µM, the “IC50 ratio (hAChE/Ag ace-1S)” value (Ag ace-1S [2]) was “(130x)” and the “Live Mosquito Contact Toxicity MC for 100% lethality at 24 hr” value (Anopheles gambiae) was 11 ug/cm^2.
In the case of `CNC(=O)Oc1cc(C)cc(C)c1` [Compound 10a], the IC50 (hAChE) is reported as 17.4 µM, the IC50 (Ag hmg AChE; [3]) is reported as 2.78 µM and the “IC50 ratio (hAChE/Ag hmg)” value (Ag hmg AChE) is reported as “(6.2x)”. For the same compound, the IC50 (Ag ace-1S [1]) was 1.04 µM, the “IC50 ratio (hAChE/Ag ace-1S)” value (Ag ace-1S [2]) was “(17x)” and the “Live Mosquito Contact Toxicity MC for 100% lethality at 24 hr” value (Anopheles gambiae) was 56 ug/cm^2. The IC50 (Md hmg AChE; [4]) was 6 µM.
In the case of `CNC(=O)Oc1cccc([Si](C)(C)C)c1` [Compound 2a, N-methyl 3-(trimethylsilyl)phenyl carbamate], the IC50 (hAChE) is reported as 0.532 µM, the IC50 (Ag hmg AChE; [3]) is reported as 0.0056 µM and the “difference in potency Ag hmg AChE vs Md hmg AChE” value (Ag hmg AChE; more potent at Ag hmg AChE) is reported as 100 fold. For the same compound, the “IC50 ratio (hAChE/Ag hmg)” value (Ag hmg AChE) was “(95x)”, the IC50 (Ag ace-1S [1]) was 0.0041 µM and the “IC50 ratio (hAChE/Ag ace-1S)” value (Ag ace-1S [2]) was “(130x)”. The “Live Mosquito Contact Toxicity MC for 100% lethality at 24 hr” value (Anopheles gambiae) was 5.6 ug/cm^2 and the IC50 (Md hmg AChE; [4]) was 0.7 µM.
